Assay results taken from ChEMBL document CHEMBL4483862, “Open-source discovery of chemical leads for next-generation chemoprotective antimalarials” (2018).

Tested on: Plasmodium berghei
Assay: Luciferase/luciferin-expressing antifolate-resistant parasites were used to infect a culture of HepG2 cells that were pre-incubated with compounds. Infected hepatocytes emit light due to the luciferase reaction. Assay results are presented as the percent inhibition of light emission compared to control. […]
Format: functional
Details: sporozoite; for IC90: read-out: LUCIFERASE INFECTION ASSAY - IC90

Row | SMILES | IC90 [µM] | other results
1 | O=C(Nc1ccc(OC(F)(F)F)cc1)c1c(-c2ccccc2)nnc2ccccc12 | > 8.06 | IC50 (FFLUC_HILL_SLOPE 2.82, FFLUC_R_SQUARED 0.654, HEPG2TOX_HILL_SLOPE 0.161, HEPG2TOX_R_SQUARED 0.349, PBLUC_HILL_SLOPE 0.343, PBLUC_R_SQUARED 0.11, read-out: LUCIFERASE INFECTION ASSAY - IC50): > 8.06 µM
2 | O=C1Nc2ccc(Cl)cc2/C1=C/c1ccc(-c2ccccc2)cc1 | > 10 | IC50 (FFLUC_HILL_SLOPE 2.74, FFLUC_R_SQUARED 0.354, PBLUC_HILL_SLOPE 5.72, PBLUC_R_SQUARED 0.824, read-out: LUCIFERASE INFECTION ASSAY - IC50): 8.45 µM
3 | Cc1cc(C2(c3cc(C)n(-c4ccccc4)c3C)CCC(C)CC2)c(C)n1-c1ccccc1 | > 10 | IC50 (FFLUC_HILL_SLOPE 2.77, FFLUC_R_SQUARED 0.531, read-out: LUCIFERASE INFECTION ASSAY - IC50): > 10 µM
4 | O=C(OC1(C(F)(F)F)C(=O)Nc2c1ccc1ccccc21)c1cccs1 (stereo not given) | > 10 | IC50 (FFLUC_HILL_SLOPE 2.8, FFLUC_R_SQUARED 0.511, PBLUC_HILL_SLOPE 11.1, PBLUC_R_SQUARED 0.378, read-out: LUCIFERASE INFECTION ASSAY - IC50): 9.81 µM
5 | Cc1nc(C2(NC(=O)COc3ccc4ccccc4c3)CCCCC2)no1 | > 10 | IC50 (FFLUC_HILL_SLOPE 2.65, FFLUC_R_SQUARED 0.0928, read-out: LUCIFERASE INFECTION ASSAY - IC50): > 10 µM
6 | CC1(C)CC(=O)C(C(c2ccc(OCc3ccccc3)cc2)C2C(=O)CC(C)(C)CC2=O)C(=O)C1 | > 10 | IC50 (FFLUC_HILL_SLOPE 2.7, FFLUC_R_SQUARED 0.381, read-out: LUCIFERASE INFECTION ASSAY - IC50): > 10 µM
7 | Cc1ccc(/N=c2\scc(-c3cccc(C(F)(F)F)c3)n2/N=C/c2ccc3ncccc3c2)c(C)c1 | > 10 | IC50 (FFLUC_HILL_SLOPE 2.84, FFLUC_R_SQUARED 0.529, read-out: LUCIFERASE INFECTION ASSAY - IC50): > 10 µM
8 | CCOC(=O)c1c(-c2ccc(Br)cc2)cn2c(=O)/c(=C3\C=CC=CN3C)sc12 | > 10 | IC50 (FFLUC_HILL_SLOPE 2.7, FFLUC_R_SQUARED 0.575, PBLUC_HILL_SLOPE 2.12, PBLUC_R_SQUARED 0.479, read-out: LUCIFERASE INFECTION ASSAY - IC50): 7.05 µM
9 | CC(C)c1cc(C(C)C)c(S(=O)(=O)Nc2ccc(O)cc2)c(C(C)C)c1 | 3.98 | IC50 (FFLUC_HILL_SLOPE 2.79, FFLUC_R_SQUARED 0.606, PBLUC_HILL_SLOPE 11.9, 14.6, PBLUC_R_SQUARED 0.380, 0.737, read-out: LUCIFERASE INFECTION ASSAY - IC50): 3.36 µM
10 | COc1ccccc1-n1c(SCC(=O)NNC(=O)c2ccc([N+](=O)[O-])cc2)nc2ccccc2c1=O | > 10 | IC50 (FFLUC_HILL_SLOPE 2.82, FFLUC_R_SQUARED 0.966, read-out: LUCIFERASE INFECTION ASSAY - IC50): > 10 µM
11 | COC(CNC(=S)c1c(-c2ccc(Cl)cc2)c2c3n(c(-c4cccc(S(=O)(=O)N5CCOCC5)c4)nn13)CCCC2)OC | 0.453 | IC50 (FFLUC_HILL_SLOPE 2.83, FFLUC_R_SQUARED 0.688, HEPG2TOX_HILL_SLOPE 16.1, HEPG2TOX_R_SQUARED 0.632, PBLUC_HILL_SLOPE 13, PBLUC_R_SQUARED 0.649, read-out: LUCIFERASE INFECTION ASSAY - IC50): 0.383 µM
12 | CCOC(=O)c1c(NC(=O)CSc2nnc3n(-c4c(C)cccc4C)c(=O)c4ccccc4n23)sc(C(C)=O)c1C | 5.29 | IC50 (FFLUC_HILL_SLOPE 2.66, FFLUC_R_SQUARED 0.447, PBLUC_HILL_SLOPE 3.22, PBLUC_R_SQUARED 0.684, read-out: LUCIFERASE INFECTION ASSAY - IC50): 2.67 µM
13 | O=[N+]([O-])c1ccc(-c2[nH]nc(-c3ccccc3)c2-c2ccc3ccccc3n2)cc1 | 9.84 | IC50 (FFLUC_HILL_SLOPE 2.78, FFLUC_R_SQUARED 0.0561, HEPG2TOX_HILL_SLOPE 6.28, HEPG2TOX_R_SQUARED 0.62, PBLUC_HILL_SLOPE 3.02, PBLUC_R_SQUARED 0.452, read-out: LUCIFERASE INFECTION ASSAY - IC50): 4.75 µM
14 | Cc1ccc(C2CC(c3cccs3)=NN2c2ccc(C=C(C#N)C#N)cc2)o1 (stereo not given) | > 10 | IC50 (FFLUC_HILL_SLOPE 2.65, FFLUC_R_SQUARED 0.905, HEPG2TOX_HILL_SLOPE 1.94, HEPG2TOX_R_SQUARED 0.705, PBLUC_HILL_SLOPE 0.92, PBLUC_R_SQUARED 0.729, read-out: LUCIFERASE INFECTION ASSAY - IC50): 1.71 µM
15 | Cc1ccc(NC(=O)Nc2cnn(-c3ccc([N+](=O)[O-])cc3)c2C(F)(F)F)cc1F | 3.46 | IC50 (FFLUC_HILL_SLOPE 2.79, FFLUC_R_SQUARED 0.315, HEPG2TOX_HILL_SLOPE 0.0932, HEPG2TOX_R_SQUARED 0.068, PBLUC_HILL_SLOPE 11.4, PBLUC_R_SQUARED 0.0999, read-out: LUCIFERASE INFECTION ASSAY - IC50): 2.85 µM
16 | C/N=c1\scc(-c2ccc(OC(F)F)cc2)n1/N=C/c1cccs1 | 2.72 | IC50 (FFLUC_HILL_SLOPE 2.65, FFLUC_R_SQUARED 0.0605, PBLUC_HILL_SLOPE 1.58, PBLUC_R_SQUARED 0.688, read-out: LUCIFERASE INFECTION ASSAY - IC50): 0.676 µM
17 | O=C(CSc1nnc(Nc2ccc(Oc3ccccc3)cc2)s1)c1cccs1 | 4.38 | IC50 (FFLUC_HILL_SLOPE 2.69, FFLUC_R_SQUARED 0.808, PBLUC_HILL_SLOPE 3.49, PBLUC_R_SQUARED 0.557, read-out: LUCIFERASE INFECTION ASSAY - IC50): 2.33 µM
18 | Cc1ccc(NC(=O)NC(=O)CSc2nccn2Cc2ccccc2)c(C)c1 | > 10 | IC50 (FFLUC_HILL_SLOPE 2.79, FFLUC_R_SQUARED 0.544, read-out: LUCIFERASE INFECTION ASSAY - IC50): > 10 µM
19 | CCOC(=O)c1c(C)noc1/C(C)=N/Nc1cc(C(F)(F)F)cc(C(F)(F)F)c1 | > 7.8 | IC50 (FFLUC_HILL_SLOPE 2.91, FFLUC_R_SQUARED 0.779, PBLUC_HILL_SLOPE 12.4, PBLUC_R_SQUARED 0.288, read-out: LUCIFERASE INFECTION ASSAY - IC50): > 7.8 µM
20 | CC(=O)NCCCc1ccc(C(=O)COC(=O)c2cc(Cl)c[nH]2)cc1 | > 10 | IC50 (FFLUC_HILL_SLOPE 2.83, FFLUC_R_SQUARED 0.674, read-out: LUCIFERASE INFECTION ASSAY - IC50): > 10 µM
21 | C/C(=N\NC(=S)NC(C)(C)C)c1cc(F)cc(Cl)c1O | 4.66 | IC50 (FFLUC_HILL_SLOPE 2.86, FFLUC_R_SQUARED 0.466, HEPG2TOX_HILL_SLOPE 2.1, HEPG2TOX_R_SQUARED 0.731, PBLUC_HILL_SLOPE 9.8, PBLUC_R_SQUARED 0.522, read-out: LUCIFERASE INFECTION ASSAY - IC50): 3.72 µM
22 | Cc1ccc(-c2nn(-c3ccccc3)cc2/C=N/Nc2ncnc(N)c2[N+](=O)[O-])o1 | 1.28 | IC50 (FFLUC_HILL_SLOPE 2.88, FFLUC_R_SQUARED 0.103, HEPG2TOX_HILL_SLOPE 0.791, HEPG2TOX_R_SQUARED 0.887, PBLUC_HILL_SLOPE 4.72, PBLUC_R_SQUARED 0.877, read-out: LUCIFERASE INFECTION ASSAY - IC50): 0.806 µM
23 | CCOC(=O)c1c(N2C(=O)C=CC2=O)sc2c1CCCC2 | > 10.8 | IC50 (FFLUC_HILL_SLOPE 2.83, FFLUC_R_SQUARED 0.0392, read-out: LUCIFERASE INFECTION ASSAY - IC50): > 10.8 µM
24 | CC1=NN(c2ccccc2)C(=O)/C1=C\c1cc(C)n(-c2cc(C(F)(F)F)ccc2Cl)c1C | > 10 | IC50 (FFLUC_HILL_SLOPE 2.69, FFLUC_R_SQUARED 0.551, PBLUC_HILL_SLOPE 5.7, PBLUC_R_SQUARED 0.538, read-out: LUCIFERASE INFECTION ASSAY - IC50): 7.1 µM
25 | C=C(C)CNC(=S)N/N=C1\C(=O)Nc2ccc([N+](=O)[O-])cc21 | > 10 | IC50 (FFLUC_HILL_SLOPE 2.67, FFLUC_R_SQUARED 0.288, PBLUC_HILL_SLOPE 15.8, PBLUC_R_SQUARED 0.124, read-out: LUCIFERASE INFECTION ASSAY - IC50): 8.97 µM
26 | COC(=O)C1C(c2ccc(N(C)C)cc2)C(C(=O)OC)S(=O)(=O)C(=NNc2ccc(OC)cc2[N+](=O)[O-])S1(=O)=O (stereo not given) | > 10 | IC50 (FFLUC_HILL_SLOPE 2.66, FFLUC_R_SQUARED 0.775, read-out: LUCIFERASE INFECTION ASSAY - IC50): > 10 µM
27 | O=C1C(=O)N(Cc2cc3c(cc2Cl)OCO3)c2ccc(Cl)cc21 | > 9.42 | IC50 (FFLUC_HILL_SLOPE 2.77, FFLUC_R_SQUARED 0.777, PBLUC_HILL_SLOPE 11.7, PBLUC_R_SQUARED 0.0264, read-out: LUCIFERASE INFECTION ASSAY - IC50): 8.5 µM
28 | Cc1c(Cl)cnc(NC(=O)CSc2nnc(-c3ccccc3)o2)c1Cl | 2.88 | IC50 (FFLUC_HILL_SLOPE 2.78, FFLUC_R_SQUARED 0.409, HEPG2TOX_HILL_SLOPE 3.93, HEPG2TOX_R_SQUARED 0.284, PBLUC_HILL_SLOPE 2.91, PBLUC_R_SQUARED 0.621, read-out: LUCIFERASE INFECTION ASSAY - IC50): 1.35 µM
29 | N#CC1C(=N)Oc2c3c(c4ccccc4c2C1c1ccc(Cl)cc1)C(c1ccc(Cl)cc1)C(C#N)C(=N)O3 (stereo not given) | > 6.14 | IC50 (FFLUC_HILL_SLOPE 2.7, FFLUC_R_SQUARED 0.81, HEPG2TOX_HILL_SLOPE 15, HEPG2TOX_R_SQUARED 0.458, PBLUC_HILL_SLOPE 19.3, PBLUC_R_SQUARED 0.191, read-out: LUCIFERASE INFECTION ASSAY - IC50): 5.72 µM
30 | Nc1c(C(=O)N2CCOCC2)sc2nc3c(cc12)CCCCC3 | 0.424 | IC50 (FFLUC_HILL_SLOPE 2.88, FFLUC_R_SQUARED 0.736, PBLUC_HILL_SLOPE 1.46, PBLUC_R_SQUARED 0.898, read-out: LUCIFERASE INFECTION ASSAY - IC50): 0.0939 µM
